Test results: patent US10160785B2, “Antimicrobial peptides and their use for the treatment of topical infections” (priority 2015, dated 2018)

How the values were obtained:
human red blood cells = experiment: in vitro
Summary of the method: (§1)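 Peptides at 2-200 μmol.l^−1 incubated 1 h at 37 °C with 5% v/v human erythrocyte suspension in physiological solution. Released haemoglobin in supernatant read at 540 nm against buffer (0%) and 0.2% Triton X100 (100%) lysis controls. LC50 is the peptide concentration lysing 50% of cells.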

Bacillus subtilis = conditions: Bacillus subtilis; 37° C., 20 h
Experimental: (§2) Gram-positive bacteria (Micrococcus luteus, Bacillus subtilis, Staphylococcus aureus, Staphylococcus epidermidis and Enterococcus faecalis), Gram-negative bacteria (Escherichia coli and Pseudomonas aeruginosa) and the yeast (Candida albicans) were grown to exponential phase and then were diluted with fresh medium. BHI medium (Oxoid, Great Britain) was used for Enterococcus faecalis; YPD medium containing yeast extract peptone and glucose was used for Candida albicans and LB medium (Sigma, Czech Republic) was used for the remaining microorganisms. Then the microorganisms were added to the solutions of the tested antimicrobial peptides in LB medium in multi-well plates. The final peptide concentration it the wells was in the range of 0.1 to 100 μmol.l^−1. That was made by twofold serial dilution from the peptide stock solution (1 mmol.l^−1). The plates were incubated at 37° C. for 20 h while being continuously shaken in a Bioscreen C (Oy Growth Curves AB Ltd., Helsinki, Finland). Absorbance was measured at 540 nm every 15 min. Antimicrobial activity (Table 2) was determined as a quantitative minimum inhibitory concentration (MIC) by observing bacterial growth in the presence of different concentrations of tested peptides. In the experiments ca 10^5 CFU of bacteria or candida per well were routinely used.
(§3) Multiresistant clinical isolates of bacteria were obtained from University Hospital in Motol, Prague, Czech Republic and from Liberec Regional Hospital, Czech Republic. Methicillin resistant Staphylococcus aureus (MRSA) 6271 and Pseudomonas aeruginosa 5482 were from the Czech National Collection of Type Cultures, the National Institute of Public Health, Prague, Czech Republic. Other bacteria were from the Czech Collection of Microorganisms, Brno, Czech Republic. Candida albicans came from the Faculty of Medicine, Palacky University, Olomouc, Czech Republic.

Candida albicans Olomouc = conditions: Candida albicans Olomouc; YPD medium; 37° C., 20 h (Example 2)
Experimental: as §2, §3

[1] = test system: Enterococcus faecalis Motol; conditions: BHI medium, 37° C., 20 h
Experimental: as §2, §3

Escherichia coli = conditions: 37° C., 20 h
Experimental: as §2, §3

[2] = test system: Methicillin resistant Staphylococcus aureus (MRSA) 6271; conditions: 37° C., 20 h
Experimental: as §2, §3

Micrococcus luteus = conditions: Micrococcus luteus; 37° C., 20 h
Experimental: as §2, §3

[3] = test system: Pseudomonas aeruginosa 5482; conditions: 37° C., 20 h
Experimental: as §2, §3

[4] = test system: Pseudomonas aeruginosa Liberec; conditions: Pseudomonas aeruginosa Liberec; 37° C., 20 h
Experimental: as §2, §3

[5] = test system: Staphylococcus aureus Liberec; conditions: Staphylococcus aureus Liberec clinical isolate; 37° C., 20 h
Experimental: as §2, §3

[6] = test system: Staphylococcus aureus Motol; conditions: Staphylococcus aureus Motol clinical isolate; 37° C., 20 h
Experimental: as §2, §3

[7] = test system: Staphylococcus epidermidis Motol; conditions: 37° C., 20 h
Experimental: as §2, §3

in vitro = conditions: human
Summary of the method: as §1

[8] = test system: Candida albicans (Olomouc); experiment: microbe, parasite or virus in culture; type: cell-based; conditions: RPMI broth microdilution, 35° C., 48 hours, visual
Summary of the method: (§4)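 Broth microdilution in RPMI 1640 with 0.165 mol.l^−1 MOPS; peptide dilutions of 0.625–160 μmol.l^−1 were added to wells, then inoculum at 5×10^2–2.5×10^3 CFU/ml final. Plates were incubated unshaken at 35 °C. MIC was read visually at 48 h as the lowest concentration without visible growth.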

[9] = test system: Candida albicans ATCC MYA-2876; experiment: microbe, parasite or virus in culture; type: cell-based; conditions: RPMI broth microdilution, 35° C., 48 hours, visual
Summary of the method: as §4

[10] = test system: Candida dubliniensis ATCC MYA-646; experiment: microbe, parasite or virus in culture; type: cell-based; conditions: RPMI broth microdilution, 35° C., 48 hours, visual
Summary of the method: as §4

[11] = test system: Candida glabrata ATCC 2001; experiment: microbe, parasite or virus in culture; type: cell-based; conditions: RPMI broth microdilution, 35° C., 48 hours, visual
Summary of the method: as §4

Candida glabrata DSY 565 = experiment: microbe, parasite or virus in culture; type: cell-based; conditions: RPMI broth microdilution, 35° C., 48 hours, visual
Summary of the method: as §4

Candida krusei ATCC 6258 = experiment: microbe, parasite or virus in culture; type: cell-based; conditions: RPMI broth microdilution, 35° C., 48 hours, visual
Summary of the method: as §4

[12] = test system: Candida tropicalis ATCC 750; experiment: microbe, parasite or virus in culture; type: cell-based; conditions: RPMI broth microdilution, 35° C., 48 hours, visual
Summary of the method: as §4

P. aeruginosa (Liberec) = experiment: Synergistic effect of peptides with antibiotics, FIC index; type: cell-based, Pseudomonas aeruginosa; conditions: FIC <0.5 synergism, 0.5-2 additive, >2 antagonism, averages of three experiments; for FIC indexes (fractional inhibitory concentration) Combination with RIF against P. aeruginosa: peptide combined with rifampicin; for FIC indexes (fractional inhibitory concentration) Combination with TET against P. aeruginosa: peptide combined with tetracycline
Experimental: (§5) MICs values of various combinations of two fold serial dilutions of peptides and antibiotics were determined using the same methodology as in the case of antimicrobial activity determination (Example 2). To consider the type of the final effect, FIC indexes (fractional inhibitory concentration) were used and calculated as follows:
(§6) [formula] where MICPC and MICAC are the MICs of the peptide and antibiotic in combination, respectively, and MICP and MICA are the MICs of the peptide and antibiotic tested alone, respectively. FIC<0.5 were considered as synergy, 0.5≤FIC≤2 as addition effect, and FIC>2 as antagonism.

S. aureus (Liberec) = experiment: as above; type: cell-based, Staphylococcus aureus; conditions: peptide combined with amoxicillin; FIC <0.5 synergism, 0.5-2 additive, >2 antagonism; averages of three experiments
Experimental: as §5, §6

[13] = test system: S. aureus (Liberec) biofilm; experiment: Bacterial biofilm, remaining metabolic activity (MTT); type: cell-based, Staphylococcus aureus; conditions: remaining metabolic activity of biofilm, 20 h
Experimental: Inoculum of S. aureus (Liberec) or P. aeruginosa (Liberec) cultivated overnight in BHI medium was diluted with fresh BHI medium containing 1% glucose to a final concentration to be ca. 10^8 CFU/ml. Then this was pipetted (100 μl) to 96-multiwell polystyrene plate which was incubated at 37° C. under rotary shaking (300 RPM) for 24 h. Medium without bacteria in the wells was used as a negative control. Supernatant from each well was drained and the biofilm formed on the bottom and on the walls of the wells was cautiously washed three times by sterile physiological solution (300 μl). The peptides tested in the concentrations of 1-128 μmol.l^−1 were prepared by twofold serial dilution of their stock solution (1 mmol.l^−1) in fresh BHI medium and then pipetted (100 μl) to the wells with formed biofilms. The biofilms covered by BHI medium without peptide were used as a positive control. The plates were then incubated for 20 h as described above. After that the liquid was drained out and wells were washed twice with sterile physiological solution.
The metabolic activity of surviving bacterial cells in the biofilm was determined by staining with MTT (3-(4,5-dimethylthiazol-2-yl)-2,5-diphenyl-2H-tetrazolium bromide) as follows: The mixture of BHI medium (100 μl) and 10 μl of the stock solution of MTT (5 mg/ml in physiological solution) was added to each well and the plate was incubated 40 min at 37° C. The liquid was drained out and the insoluble formazan crystals formed by reduction inside the biofilm were dissolved with dimethyl sulphoxide (100 μl). The intensity of staining in each well was measured as absorbance at 540 nm on a Tecan Infinite M200 Pro reader (Tecan GmbH, Austria). Remaining activity of surviving cells inside the biofilm was expressed for each well in percentage according to the following equation:
[formula] where A is the absorbance of the tested compound, ABL is the absorbance of the negative control, and AC is the absorbance of control biofilm.

| Substance | Antimicrobial activity MIC B. s. (Bacillus subtilis) [µM] | Antimicrobial activity MIC C. a. Olomouc (Candida albicans Olomouc) [µM] | Antimicrobial activity MIC E. f. Motol [1] [µM] | Antimicrobial activity MIC E. c. (Escherichia coli) [µM] | Antimicrobial activity MIC S. a. 6271 [2] [µM] | Antimicrobial activity MIC M. l. (Micrococcus luteus) [µM] | Antimicrobial activity MIC P. a. 5482 [3] [µM] | Antimicrobial activity MIC P. a. Liberec [4] [µM] | Antimicrobial activity MIC S. a. Liberec [5] [µM] | Antimicrobial activity MIC S. a. Motol [6] [µM] | Antimicrobial activity MIC S. e. Motol [7] [µM] | HC50 at 1 h (in vitro) [µM] | Antifungal activity MIC C. albicans Olomouc [8] [µM] | Antifungal activity MIC C. albicans ATCC MYA-2876 [9] [µM] | Antifungal activity MIC C. dubliniensis ATCC MYA-646 [10] [µM] | Antifungal activity MIC C. glabrata ATCC 2001 [11] [µM] | Antifungal activity MIC C. glabrata DSY 565 (Candida glabrata DSY 565) [µM] | Antifungal activity MIC C. krusei ATCC 6258 (Candida krusei ATCC 6258) [µM] | Antifungal activity MIC C. tropicalis ATCC 750 [12] [µM] | FIC indexes (fractional inhibitory concentration) Combination with RIF against P. aeruginosa (P. aeruginosa (Liberec)) | also measured |
| --- | --- | --- | --- | --- | --- | --- | --- | --- | --- | --- | --- | --- | --- | --- | --- | --- | --- | --- | --- | --- | --- |
| H-GIMSSLMKKLAAHIAK-NH2 [hylanine, reference compound] | – | – | – | – | – | – | – | – | – | – | – | – | – | – | – | – | – | – | – | – | toxicity against eukaryotic cells measured as hemolytic activity (human red blood cells; in words): very low |
| H-GIMSSLMKKLKKIIKK-NH2 [VII] | 2.5 | 6.3 | >100 | 22.0 | 54.0 | 1.9 | 7.1 | 9.9 | 18.0 | 64.7 | 1.7 | > 400 | 17.0 | 22.0 | 20.0 | 40.0 | 97.8 | 10.0 | 1.1 | 0.365 | FIC indexes (fractional inhibitory concentration) Combination with TET against P. aeruginosa (P. aeruginosa (Liberec)): 0.625; FIC indexes (fractional inhibitory concentration) Combination with AMX against S. aureus (S. aureus (Liberec)): 0.167 |
| H-GIWSSLLKKLKKIIAK-NH2 [XIV] | 0.8 | 16.0 | 46.0 | 1.6 | 20.0 | 0.8 | 6.3 | 21.0 | 4.6 | 5.3 | 1.5 | 165 | 8.2 | 10.0 | 9.0 | 19.1 | 48.0 | 5.2 | 1.2 | 0.271 | FIC indexes (fractional inhibitory concentration) Combination with TET against P. aeruginosa (P. aeruginosa (Liberec)): 0.354; FIC indexes (fractional inhibitory concentration) Combination with AMX against S. aureus (S. aureus (Liberec)): 0.396 |
| H-Gly-Ile-Leu-Ser-Ser-Leu-Trp-Lys-Lys-Leu-Lys-Lys-Ile-Ile-Ala-Lys-NH2 (H-GILSSLWKKLKKIIAK-NH2; also: D-amino acids (positions not given here)) [XIX] | 2.0 | 26.0 | 6.5 | 13.0 | 6.3 | – | 6.3 | 8.5 | 3.2 | 3.2 | 1.6 | – | – | – | – | – | – | – | – | – | CC50 (human red blood cells; read-out: Hemolytic activity LC50, lysis of 50% of human erythrocytes, 1 h at 37° C.): > 200 µM; Metabolic activity (%) S. aureus (Liberec) ([13]; peptide concentration 8 μmol · l^−1): 72.8%; Metabolic activity (%) S. aureus (Liberec) ([13]; peptide concentration 16 μmol · l^−1): 2.8%; Metabolic activity (%) S. aureus (Liberec) ([13]; peptide concentration 32 μmol · l^−1): 2.3%; Metabolic activity (%) S. aureus (Liberec) ([13]; peptide concentration 64 μmol · l^−1): 2.3%; Metabolic activity (%) S. aureus (Liberec) ([13]; peptide concentration 128 μmol · l^−1): 1.7% |
| H-KILSSLLKKLKKIIAK-NH2 [VI] | 1.3 | 25.3 | 32.5 | 16.0 | 32.0 | 1.0 | 5.0 | 16.0 | 5.5 | 10.0 | 1.4 | 364 | 12.0 | 20.0 | 12.0 | 28.0 | 71.1 | 4.8 | 0.9 | 0.260 | FIC indexes (fractional inhibitory concentration) Combination with TET against P. aeruginosa (P. aeruginosa (Liberec)): 0.708; FIC indexes (fractional inhibitory concentration) Combination with AMX against S. aureus (S. aureus (Liberec)): 0.292 |
